# Measurements from ChEMBL document CHEMBL4507297, “Data for DCP probe PF-04457845” (2021).
# Assays:
# Settings in all cases: Compound concentration 1000.0 nM
# [1] = biological target: Serine/threonine-protein kinase PAK 5 (Homo sapiens) (UniProt Q9P286)
# [2] = biological target: Death-associated protein kinase 2 (Homo sapiens) (UniProt Q9UIK4)
# [3] = biological target: Ribosomal protein S6 kinase beta-1 (Homo sapiens) (UniProt P23443)
# [4] = biological target: ALK tyrosine kinase receptor (Homo sapiens) (UniProt Q9UM73)
# [5] = biological target: Cyclin-dependent kinase 18 (Homo sapiens) (UniProt Q07002)
# [6] = biological target: RAC-alpha serine/threonine-protein kinase (Homo sapiens) (UniProt P31749)
# [7] = biological target: Serine/threonine-protein kinase 4 (Homo sapiens) (UniProt Q13043)
# [8] = test system: Phosphatidylinositol 4,5-bisphosphate 3-kinase catalytic subunit alpha isoform (Homo sapiens), P42336 [Q546K]
# [9] = biological target: Dual specificity tyrosine-phosphorylation-regulated kinase 2 (Homo sapiens) (UniProt Q92630)
# [10] = biological target: Homeodomain-interacting protein kinase 4 (Homo sapiens) (UniProt Q8NE63)
# [11] = biological target: Protein kinase C eta type (Homo sapiens) (UniProt P24723)
# [12] = biological target: Glycogen synthase kinase-3 beta (Homo sapiens) (UniProt P49841)
# [13] = test system: Mast/stem cell growth factor receptor Kit (Homo sapiens), P10721 [V559D,T670I]
# [14] = biological target: Tyrosine-protein kinase ITK/TSK (Homo sapiens) (UniProt Q08881)
# [15] = biological target: Casein kinase I isoform alpha (Homo sapiens) (UniProt P48729)
# [16] = biological target: Serine/threonine-protein kinase TAO2 (Homo sapiens) (UniProt Q9UL54)
# [17] = biological target: Mitogen-activated protein kinase kinase kinase 6 (Homo sapiens) (UniProt O95382)
# [18] = biological target: Interferon-induced, double-stranded RNA-activated protein kinase (Homo sapiens) (UniProt P19525)
# [19] = biological target: Calcium/calmodulin-dependent protein kinase type II subunit beta (Homo sapiens) (UniProt Q13554)
# [20] = biological target: Mitogen-activated protein kinase 12 (Homo sapiens) (UniProt P53778)
# [21] = biological target: Receptor-type tyrosine-protein kinase FLT3 (Homo sapiens) (UniProt P36888)
# [22] = biological target: Serine/threonine-protein kinase D3 (Homo sapiens) (UniProt O94806)
# [23] = biological target: Mitogen-activated protein kinase 15 (Homo sapiens) (UniProt Q8TD08)
# [24] = test system: Tyrosine-protein kinase ABL1 (Homo sapiens), P00519 [F317I]
# [25] = biological target: Serine/threonine-protein kinase 17B (Homo sapiens) (UniProt O94768)
# [26] = biological target: Serine/threonine-protein kinase 26 (Homo sapiens) (UniProt Q9P289)
# [27] = biological target: MAP kinase-interacting serine/threonine-protein kinase 2 (Homo sapiens) (UniProt Q9HBH9)
# [28] = biological target: Serine/threonine-protein kinase Nek2 (Homo sapiens) (UniProt P51955)
# [29] = biological target: Cyclin-dependent kinase 3 (Homo sapiens) (UniProt Q00526)
# [30] = biological target: Ephrin type-A receptor 3 (Homo sapiens) (UniProt P29320)
# [31] = biological target: TGF-beta receptor type-1 (Homo sapiens) (UniProt P36897)
# [32] = biological target: Serine/threonine-protein kinase WNK1 (Homo sapiens) (UniProt Q9H4A3)
# [33] = biological target: Dual specificity mitogen-activated protein kinase kinase 2 (Homo sapiens) (UniProt P36507)
# [34] = biological target: Cyclin-dependent kinase 4 (Homo sapiens) (UniProt P11802)
# [35] = biological target: Calcium-dependent protein kinase 1 (Plasmodium falciparum) (UniProt P62344)
# [36] = biological target: Calcium/calmodulin-dependent protein kinase type II subunit gamma (Homo sapiens) (UniProt Q13555)
# [37] = biological target: Death-associated protein kinase 1 (Homo sapiens) (UniProt P53355)
# [38] = test system: Phosphatidylinositol 4,5-bisphosphate 3-kinase catalytic subunit alpha isoform (Homo sapiens), P42336 [I800L]
# [39] = biological target: Mitogen-activated protein kinase 7 (Homo sapiens) (UniProt Q13164)
# [40] = biological target: Cyclin-dependent kinase 5 (Homo sapiens) (UniProt Q00535)
# [41] = test system: Epidermal growth factor receptor (Homo sapiens), P00533 [UNDEFINED MUTATION]
# [42] = biological target: Cyclin-G-associated kinase (Homo sapiens) (UniProt O14976)
# [43] = biological target: Serine/threonine-protein kinase VRK2 (Homo sapiens) (UniProt Q86Y07)
# [44] = biological target: Non-receptor tyrosine-protein kinase TYK2 (Homo sapiens) (UniProt P29597)
# [45] = biological target: Non-receptor tyrosine-protein kinase TNK1 (Homo sapiens) (UniProt Q13470)
# Serine/threonine-protein kinase TAO2 (Homo sapiens), sequence (Q9UL54 whole entry): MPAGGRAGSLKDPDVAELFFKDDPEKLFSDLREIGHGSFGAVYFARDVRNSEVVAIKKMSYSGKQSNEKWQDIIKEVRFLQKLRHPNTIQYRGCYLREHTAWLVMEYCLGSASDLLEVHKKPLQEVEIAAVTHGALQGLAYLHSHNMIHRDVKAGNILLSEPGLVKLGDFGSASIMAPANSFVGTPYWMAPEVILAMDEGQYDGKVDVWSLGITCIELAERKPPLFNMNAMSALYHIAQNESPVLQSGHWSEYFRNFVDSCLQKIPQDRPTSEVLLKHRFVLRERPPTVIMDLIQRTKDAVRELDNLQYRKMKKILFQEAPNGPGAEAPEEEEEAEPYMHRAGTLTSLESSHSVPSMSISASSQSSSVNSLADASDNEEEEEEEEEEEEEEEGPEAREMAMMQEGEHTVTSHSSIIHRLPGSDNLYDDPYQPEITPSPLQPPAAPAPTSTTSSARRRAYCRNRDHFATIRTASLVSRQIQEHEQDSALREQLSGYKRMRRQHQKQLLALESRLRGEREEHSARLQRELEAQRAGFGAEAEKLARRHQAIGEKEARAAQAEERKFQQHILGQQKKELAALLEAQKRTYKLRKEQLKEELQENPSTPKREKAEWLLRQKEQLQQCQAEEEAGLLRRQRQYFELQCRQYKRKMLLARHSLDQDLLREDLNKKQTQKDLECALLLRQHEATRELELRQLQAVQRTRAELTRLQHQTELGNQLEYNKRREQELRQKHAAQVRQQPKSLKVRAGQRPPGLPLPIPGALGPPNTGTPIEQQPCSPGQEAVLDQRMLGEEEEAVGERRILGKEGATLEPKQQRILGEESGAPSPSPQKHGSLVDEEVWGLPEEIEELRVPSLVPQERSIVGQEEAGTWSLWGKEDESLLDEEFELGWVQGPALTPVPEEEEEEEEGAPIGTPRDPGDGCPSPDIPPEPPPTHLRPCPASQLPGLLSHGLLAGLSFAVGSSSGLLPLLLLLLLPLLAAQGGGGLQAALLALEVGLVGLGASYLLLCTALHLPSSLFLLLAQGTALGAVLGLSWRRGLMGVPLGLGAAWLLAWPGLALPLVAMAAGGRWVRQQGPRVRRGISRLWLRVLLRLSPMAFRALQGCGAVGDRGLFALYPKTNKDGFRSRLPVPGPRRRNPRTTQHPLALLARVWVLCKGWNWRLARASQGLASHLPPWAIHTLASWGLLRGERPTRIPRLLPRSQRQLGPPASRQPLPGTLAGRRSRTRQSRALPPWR
# Mast/stem cell growth factor receptor Kit (Homo sapiens), P10721 [V559D,T670I], sequence (P10721 whole entry V559D/T670I): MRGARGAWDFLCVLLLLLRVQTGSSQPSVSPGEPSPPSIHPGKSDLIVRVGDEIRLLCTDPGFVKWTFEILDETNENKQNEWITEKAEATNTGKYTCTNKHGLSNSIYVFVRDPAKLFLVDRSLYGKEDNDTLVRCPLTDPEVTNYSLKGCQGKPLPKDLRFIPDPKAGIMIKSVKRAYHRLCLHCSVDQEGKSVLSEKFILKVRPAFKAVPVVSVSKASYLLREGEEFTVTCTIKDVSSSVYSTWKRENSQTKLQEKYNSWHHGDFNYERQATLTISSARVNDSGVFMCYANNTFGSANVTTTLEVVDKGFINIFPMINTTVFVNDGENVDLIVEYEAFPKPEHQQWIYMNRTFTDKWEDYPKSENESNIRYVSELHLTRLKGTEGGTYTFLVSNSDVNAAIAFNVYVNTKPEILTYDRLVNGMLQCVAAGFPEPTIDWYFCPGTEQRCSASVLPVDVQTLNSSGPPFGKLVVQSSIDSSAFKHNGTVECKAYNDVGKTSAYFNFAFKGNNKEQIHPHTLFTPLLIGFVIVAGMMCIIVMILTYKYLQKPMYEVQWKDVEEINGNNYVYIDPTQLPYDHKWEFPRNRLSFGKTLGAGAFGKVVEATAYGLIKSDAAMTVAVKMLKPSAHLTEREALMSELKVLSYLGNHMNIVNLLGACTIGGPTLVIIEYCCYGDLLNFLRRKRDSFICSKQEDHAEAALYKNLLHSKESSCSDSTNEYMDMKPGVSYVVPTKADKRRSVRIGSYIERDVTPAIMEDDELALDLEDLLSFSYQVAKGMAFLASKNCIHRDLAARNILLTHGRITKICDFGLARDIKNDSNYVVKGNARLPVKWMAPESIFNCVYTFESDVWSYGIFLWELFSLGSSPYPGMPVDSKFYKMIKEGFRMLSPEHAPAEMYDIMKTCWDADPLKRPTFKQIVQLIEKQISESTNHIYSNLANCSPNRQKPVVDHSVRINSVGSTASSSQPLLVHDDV
# Cyclin-G-associated kinase (Homo sapiens), sequence (O14976 whole entry): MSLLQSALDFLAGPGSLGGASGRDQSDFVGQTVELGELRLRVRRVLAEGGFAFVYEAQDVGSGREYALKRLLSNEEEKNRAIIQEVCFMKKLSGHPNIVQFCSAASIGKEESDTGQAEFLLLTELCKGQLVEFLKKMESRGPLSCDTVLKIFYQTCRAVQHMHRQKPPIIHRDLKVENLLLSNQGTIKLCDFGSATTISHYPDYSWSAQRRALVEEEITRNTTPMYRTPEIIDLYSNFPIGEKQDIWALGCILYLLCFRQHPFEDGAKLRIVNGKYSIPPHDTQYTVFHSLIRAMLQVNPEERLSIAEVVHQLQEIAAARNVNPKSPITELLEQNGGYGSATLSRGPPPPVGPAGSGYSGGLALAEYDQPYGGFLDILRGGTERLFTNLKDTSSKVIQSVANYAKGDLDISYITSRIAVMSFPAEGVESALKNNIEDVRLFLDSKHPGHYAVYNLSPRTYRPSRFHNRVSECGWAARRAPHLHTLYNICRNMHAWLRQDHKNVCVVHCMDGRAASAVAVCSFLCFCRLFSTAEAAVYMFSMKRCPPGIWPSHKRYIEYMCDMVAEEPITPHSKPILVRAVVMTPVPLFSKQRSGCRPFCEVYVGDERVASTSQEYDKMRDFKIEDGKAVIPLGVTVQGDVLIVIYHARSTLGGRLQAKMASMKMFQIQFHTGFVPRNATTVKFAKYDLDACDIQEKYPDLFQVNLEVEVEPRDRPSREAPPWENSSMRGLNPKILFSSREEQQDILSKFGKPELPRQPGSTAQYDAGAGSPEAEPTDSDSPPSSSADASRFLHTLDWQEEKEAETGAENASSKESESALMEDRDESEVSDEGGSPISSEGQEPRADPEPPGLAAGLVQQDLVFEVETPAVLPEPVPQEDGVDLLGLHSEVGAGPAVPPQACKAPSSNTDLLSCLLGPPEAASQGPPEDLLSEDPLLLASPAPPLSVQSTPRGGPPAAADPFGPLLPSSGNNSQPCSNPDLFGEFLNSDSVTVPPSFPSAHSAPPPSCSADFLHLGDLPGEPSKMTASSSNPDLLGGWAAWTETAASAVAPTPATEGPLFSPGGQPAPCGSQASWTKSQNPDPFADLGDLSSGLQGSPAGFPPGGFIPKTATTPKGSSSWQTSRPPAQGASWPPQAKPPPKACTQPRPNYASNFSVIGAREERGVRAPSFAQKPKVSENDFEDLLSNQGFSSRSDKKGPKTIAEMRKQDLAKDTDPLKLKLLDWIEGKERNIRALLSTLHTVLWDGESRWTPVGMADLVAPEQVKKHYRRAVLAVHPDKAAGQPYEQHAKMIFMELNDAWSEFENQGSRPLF
# Receptor-type tyrosine-protein kinase FLT3 (Homo sapiens), sequence (P36888 whole entry): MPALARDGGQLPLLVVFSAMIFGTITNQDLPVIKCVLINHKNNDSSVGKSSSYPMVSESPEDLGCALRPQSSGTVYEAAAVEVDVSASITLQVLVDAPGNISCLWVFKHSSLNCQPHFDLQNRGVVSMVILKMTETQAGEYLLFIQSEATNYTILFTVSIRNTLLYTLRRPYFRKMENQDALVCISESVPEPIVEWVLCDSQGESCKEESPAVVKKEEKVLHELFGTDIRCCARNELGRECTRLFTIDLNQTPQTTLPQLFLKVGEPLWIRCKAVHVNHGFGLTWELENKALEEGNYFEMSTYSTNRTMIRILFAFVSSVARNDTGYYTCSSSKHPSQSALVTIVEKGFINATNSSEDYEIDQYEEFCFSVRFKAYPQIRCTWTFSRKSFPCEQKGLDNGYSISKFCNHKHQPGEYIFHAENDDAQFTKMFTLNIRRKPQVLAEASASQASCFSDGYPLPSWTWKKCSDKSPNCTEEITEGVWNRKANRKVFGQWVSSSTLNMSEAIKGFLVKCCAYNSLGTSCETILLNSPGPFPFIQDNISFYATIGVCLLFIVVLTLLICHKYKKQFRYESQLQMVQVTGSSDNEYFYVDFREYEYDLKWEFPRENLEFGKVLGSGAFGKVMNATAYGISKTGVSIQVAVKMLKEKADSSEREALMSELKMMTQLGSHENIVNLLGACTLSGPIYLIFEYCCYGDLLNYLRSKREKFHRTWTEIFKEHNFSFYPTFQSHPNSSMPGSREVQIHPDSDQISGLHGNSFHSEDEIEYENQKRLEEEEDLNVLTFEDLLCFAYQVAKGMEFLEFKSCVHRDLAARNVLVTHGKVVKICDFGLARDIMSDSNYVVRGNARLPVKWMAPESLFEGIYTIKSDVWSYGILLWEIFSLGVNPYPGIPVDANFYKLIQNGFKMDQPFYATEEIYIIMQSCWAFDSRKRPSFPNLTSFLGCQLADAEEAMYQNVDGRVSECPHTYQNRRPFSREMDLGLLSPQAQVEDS
# Serine/threonine-protein kinase 26 (Homo sapiens), sequence (Q9P289 2-416 limits assumed): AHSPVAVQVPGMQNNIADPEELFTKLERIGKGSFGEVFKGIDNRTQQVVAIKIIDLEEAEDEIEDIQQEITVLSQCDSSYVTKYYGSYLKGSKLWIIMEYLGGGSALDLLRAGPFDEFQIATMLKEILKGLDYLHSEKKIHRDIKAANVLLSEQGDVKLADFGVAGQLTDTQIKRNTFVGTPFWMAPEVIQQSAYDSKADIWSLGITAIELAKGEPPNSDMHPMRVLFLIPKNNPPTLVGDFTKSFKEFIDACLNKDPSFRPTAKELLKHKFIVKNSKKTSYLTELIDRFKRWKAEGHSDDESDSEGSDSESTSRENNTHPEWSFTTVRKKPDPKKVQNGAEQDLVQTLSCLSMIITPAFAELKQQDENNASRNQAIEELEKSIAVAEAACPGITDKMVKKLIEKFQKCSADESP
compound,measurement,setting,value
O=C(Nc1cccnn1)N1CC(C/C=C/c2cncc(Oc3ccc(C(F)(F)F)cn3)n2)C1,residual activity,[1],95%
same,residual activity,[2],100%
same,residual activity,[3],71%
same,residual activity,[4],97%
same,residual activity,[5],100%
same,residual activity,[6],100%
same,residual activity,[7],100%
same,residual activity,[8],92%
same,residual activity,[9],81%
same,residual activity,[10],92%
same,residual activity,[11],100%
same,residual activity,[12],77%
same,residual activity,[13],100%
same,residual activity,[14],100%
same,residual activity,[15],88%
same,residual activity,[16],66%
same,residual activity,[17],60%
same,residual activity,[18],100%
same,residual activity,[19],100%
same,residual activity,[20],100%
same,residual activity,[21],86%
same,residual activity,[22],100%
same,residual activity,[23],100%
same,residual activity,[24],53%
same,residual activity,[25],100%
same,residual activity,[26],71%
same,residual activity,[27],77%
same,residual activity,[28],100%
same,residual activity,[29],100%
same,residual activity,[30],95%
same,residual activity,[31],100%
same,residual activity,[32],100%
same,residual activity,[33],95%
same,residual activity,[34],75%
same,residual activity,[35],99%
same,residual activity,[36],100%
same,residual activity,[37],98%
same,residual activity,[38],91%
same,residual activity,[39],100%
same,residual activity,[40],100%
same,residual activity,[41],95%
same,residual activity,[42],100%
same,residual activity,[43],97%
same,residual activity,[44],82%
same,residual activity,[45],100%
O=C(Nc1cccnn1)N1CCC(=Cc2cccc(Oc3ccc(C(F)(F)F)cn3)c2)CC1,residual activity,[1],100%
same,residual activity,[2],69%
same,residual activity,[3],100%
same,residual activity,[4],100%
same,residual activity,[5],76%
same,residual activity,[6],93%
same,residual activity,[7],77%
same,residual activity,[8],45%
same,residual activity,[9],81%
same,residual activity,[10],100%
same,residual activity,[11],77%
same,residual activity,[12],100%
same,residual activity,[13],96%
same,residual activity,[14],100%
same,residual activity,[15],100%
same,residual activity,[16],100%
same,residual activity,[17],100%
same,residual activity,[18],100%
same,residual activity,[19],89%
same,residual activity,[20],100%
same,residual activity,[21],97%
same,residual activity,[22],83%
same,residual activity,[23],83%
same,residual activity,[24],100%
same,residual activity,[25],100%
same,residual activity,[26],100%
same,residual activity,[27],100%
same,residual activity,[28],100%
same,residual activity,[29],100%
same,residual activity,[30],100%
same,residual activity,[31],61%
same,residual activity,[32],100%
same,residual activity,[33],100%
same,residual activity,[34],100%
same,residual activity,[35],93%
same,residual activity,[36],74%
same,residual activity,[37],100%
same,residual activity,[38],100%
same,residual activity,[39],100%
same,residual activity,[40],92%
same,residual activity,[41],100%
same,residual activity,[42],100%
same,residual activity,[43],100%
same,residual activity,[44],100%
same,residual activity,[45],98%
